Measurements from patent US8148373B2, “Compounds” (AstraZeneca AB, priority 2008, dated 2012).

What was measured:
[1] = target: T1, human muscarinic acetylcholine M3 receptor (M3-ACh) (Homo sapiens, UniProt P20309); experiment: Muscarinic 3 Receptor Binding Assay, % inhibition specific binding at 1 μM; conditions: 1 μM compound, % inhibition specific [3H]-NMS binding
T1 construct: expressed in transfected cells; host or cells: CHO-K1 (Chinese Hamster Ovary) cell membranes
Method in brief: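 Value is % inhibition of specific [3H]N-methyl scopolamine binding (0.1 nM, quarter Kd) by 1 μM compound, using SPA beads precoated with human M3-expressing CHO-K1 membranes. Buffer HEPES pH 7.4 with MgCl2 and 1% DMSO; 16 h at room temperature; 1 μM atropine sets non-specific binding.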

[2] = target: T2, Adrenergic β2 (H292 cells) (Homo sapiens, UniProt P07550); experiment: Adrenergic β2 Mediated cAMP Production, single concentration 1 μM; format: cell-based; conditions: NCI-H292, 1 μM compound, percentage of the maximum response generated by 1E-07M formoterol, read-out: β2 (% effect at 1 μM)
T2 construct: endogenous in cells; host or cells: H292 cells
Method in brief: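 cAMP was quantified by AlphaScreen in lysates of H292 cells and reported as a percentage of the 1E-07M formoterol maximum. Before lysis the cells, seeded the previous day, received rolipram (300 μM final) and then test compound at a final 1 μM in 1% DMSO for 60 min at room temperature.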

T1 sequence (P20309 whole entry): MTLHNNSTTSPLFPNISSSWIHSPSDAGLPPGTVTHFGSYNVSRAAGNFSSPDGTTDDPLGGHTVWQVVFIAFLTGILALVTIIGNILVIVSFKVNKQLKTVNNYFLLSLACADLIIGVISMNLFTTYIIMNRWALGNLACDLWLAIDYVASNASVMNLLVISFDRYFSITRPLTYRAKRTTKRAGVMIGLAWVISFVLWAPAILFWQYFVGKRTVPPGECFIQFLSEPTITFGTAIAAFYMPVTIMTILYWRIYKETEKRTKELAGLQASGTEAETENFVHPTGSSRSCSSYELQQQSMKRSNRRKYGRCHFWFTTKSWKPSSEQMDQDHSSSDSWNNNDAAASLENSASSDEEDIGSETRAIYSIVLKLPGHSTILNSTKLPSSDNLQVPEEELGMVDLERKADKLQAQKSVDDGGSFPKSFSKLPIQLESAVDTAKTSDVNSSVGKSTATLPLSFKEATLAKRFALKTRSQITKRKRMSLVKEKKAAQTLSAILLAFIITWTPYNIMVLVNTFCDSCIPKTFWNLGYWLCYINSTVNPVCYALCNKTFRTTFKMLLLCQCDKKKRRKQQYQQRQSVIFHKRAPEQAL
T2 sequence (P07550 whole entry): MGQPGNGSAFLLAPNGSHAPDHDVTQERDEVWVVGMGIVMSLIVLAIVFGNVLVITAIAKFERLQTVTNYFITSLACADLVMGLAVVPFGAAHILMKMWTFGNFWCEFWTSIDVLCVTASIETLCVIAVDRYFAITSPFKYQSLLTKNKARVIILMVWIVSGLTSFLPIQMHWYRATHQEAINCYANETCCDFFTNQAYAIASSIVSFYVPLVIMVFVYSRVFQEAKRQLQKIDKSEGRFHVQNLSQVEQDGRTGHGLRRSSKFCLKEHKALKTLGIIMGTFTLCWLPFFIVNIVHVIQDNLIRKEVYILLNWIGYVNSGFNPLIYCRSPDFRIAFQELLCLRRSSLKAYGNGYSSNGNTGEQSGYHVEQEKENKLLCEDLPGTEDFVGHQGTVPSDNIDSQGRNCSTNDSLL

SMILES	inhibition at 1 µM [1] [%]	activation at 1 µM [2] [%]
CC(C)(C)c1nc(C(=O)N2CCOC3(CCN(CCCCCCCCCNC[C@H](O)c4ccc(O)c5[nH]c(=O)sc45)CC3)C2)cs1 [Example 216, (R)-7-(2-(9-(4-(2-tert-butylthiazole-4-carbonyl)-1-oxa-4,9-diazaspiro[5.5]undecan-9-yl)nonylamino)-1-hydroxyethyl)-4-hydroxybenzo[d]thiazol-2(3H)-one]	90	88
Cc1cc(C(=O)N2CCOC3(CCN(CCCCCCCCCNC[C@H](O)c4ccc(O)c5[nH]c(=O)sc45)CC3)C2)sc1C [Example 222, (R)-7-(2-(9-(4-(4,5-dimethylthiophene-2-carbonyl)-1-oxa-4,9-diazaspiro[5.5]undecan-9-yl)nonylamino)-1-hydroxyethyl)-4-hydroxybenzo[d]thiazol-2(3H)-one]	91	87
O=C(c1ccccc1)N1CCOC2(CCN(CCOc3ccc(CNC[C@H](O)c4ccc(O)c5[nH]c(=O)sc45)cc3)CC2)C1 [Example 223, (R)-7-(2-(4-(2-(4-benzoyl-1-oxa-4,9-diazaspiro[5.5]undecan-9-yl)ethoxy)benzylamino)-1-hydroxyethyl)-4-hydroxybenzo[d]thiazol-2(3H)-one]	56	87
O=C(CCCc1cccs1)N1CCOC2(CCN(CCOc3ccc(CNC[C@H](O)c4ccc(O)c5[nH]c(=O)sc45)cc3)CC2)C1 [Example 224, (R)-4-hydroxy-7-(1-hydroxy-2-(4-(2-(4-(4-(thiophen-2-yl)butanoyl)-1-oxa-4,9-diazaspiro[5.5]undecan-9-yl)ethoxy)benzylamino)ethyl) benzo[d]thiazol-2(3H)-one]	70	89
Cn1cccc1C(=O)N1CCOC2(CCN(CCOc3ccc(CNC[C@H](O)c4ccc(O)c5[nH]c(=O)sc45)cc3)CC2)C1 [Example 225, (R)-4-hydroxy-7-(1-hydroxy-2-(4-(2-(4-(1-methyl-1H-pyrrole-2-carbonyl)-1-oxa-4,9-diazaspiro[5.5]undecan-9-yl)ethoxy)benzylamino)ethyl) benzo[d]thiazol-2(3H)-one]	60	74
O=C(Cc1cccs1)N1CCOC2(CCN(CCOc3ccc(CNC[C@H](O)c4ccc(O)c5[nH]c(=O)sc45)cc3)CC2)C1 [Example 226, (R)-4-hydroxy-7-(1-hydroxy-2-(4-(2-(4-(2-(thiophen-2-yl)acetyl)-1-oxa-4,9-diazaspiro[5.5]undecan-9-yl)ethoxy)benzylamino)ethyl) benzo[d]thiazol-2(3H)-one]	53	76
O=C(Cc1ccccc1)N1CCOC2(CCN(CCOc3ccc(CNC[C@H](O)c4ccc(O)c5[nH]c(=O)sc45)cc3)CC2)C1 [Example 227, (R)-4-hydroxy-7-(1-hydroxy-2-(4-(2-(4-(2-phenylacetyl)-1-oxa-4,9-diazaspiro[5.5]undecan-9-yl)ethoxy)benzylamino)ethyl) benzo[d]thiazol-2(3H)-one]	48	80
O=C(CCc1ccccc1)N1CCOC2(CCN(CCOc3ccc(CNC[C@H](O)c4ccc(O)c5[nH]c(=O)sc45)cc3)CC2)C1 [Example 228, (R)-4-hydroxy-7-(1-hydroxy-2-(4-(2-(4-(3-phenylpropanoyl)-1-oxa-4,9-diazaspiro[5.5]undecan-9-yl)ethoxy)benzylamino)ethyl) benzo[d]thiazol-2(3H)-one]	22	67
O=C(CCCc1ccccc1)N1CCOC2(CCN(CCOc3ccc(CNC[C@H](O)c4ccc(O)c5[nH]c(=O)sc45)cc3)CC2)C1 [Example 229, (R)-4-hydroxy-7-(1-hydroxy-2-(4-(2-(4-(4-phenylbutanoyl)-1-oxa-4,9-diazaspiro[5.5]undecan-9-yl)ethoxy)benzylamino)ethyl) benzo[d]thiazol-2(3H)-one]	67	83
CC(C)(C(=O)N1CCOC2(CCN(CCOc3ccc(CNC[C@H](O)c4ccc(O)c5[nH]c(=O)sc45)cc3)CC2)C1)c1ccccc1 [Example 230, (R)-4-hydroxy-7-(1-hydroxy-2-(4-(2-(4-(2-methyl-2-phenylpropanoyl)-1-oxa-4,9-diazaspiro[5.5]undecan-9-yl)ethoxy)benzylamino)ethyl) benzo[d]thiazol-2(3H)-one]	31	70
O=C(c1ccc(Cl)s1)N1CCOC2(CCN(CCOc3ccc(CNC[C@H](O)c4ccc(O)c5[nH]c(=O)sc45)cc3)CC2)C1 [Example 231, (R)-7-(2-(4-(2-(4-(5-chlorothiophene-2-carbonyl)-1-oxa-4,9-diazaspiro[5.5]undecan-9-yl)ethoxy)benzylamino)-1-hydroxyethyl)-4-hydroxybenzo[d] thiazol-2(3H)-one]	91	53
Cc1ccsc1C(=O)N1CCOC2(CCN(CCOc3ccc(CNC[C@H](O)c4ccc(O)c5[nH]c(=O)sc45)cc3)CC2)C1 [Example 232, (R)-4-hydroxy-7-(1-hydroxy-2-(4-(2-(4-(3-methylthiophene-2-carbonyl)-1-oxa-4,9-diazaspiro[5.5]undecan-9-yl)ethoxy)benzylamino)ethyl) benzo[d]thiazol-2(3H)-one]	56	83

Next, values leading:

inhibition at 1 µM [1] [%]	activation at 1 µM [2] [%]	SMILES
51	82	O=C(Cc1ccsc1)N1CCOC2(CCN(CCOc3ccc(CNC[C@H](O)c4ccc(O)c5[nH]c(=O)sc45)cc3)CC2)C1 [Example 233, (R)-4-hydroxy-7-(1-hydroxy-2-(4-(2-(4-(2-(thiophen-3-yl)acetyl)-1-oxa-4,9-diazaspiro[5.5]undecan-9-yl)ethoxy)benzylamino)ethyl) benzo[d]thiazol-2(3H)-one]
80	78	Cc1ccoc1C(=O)N1CCOC2(CCN(CCOc3ccc(CNC[C@H](O)c4ccc(O)c5[nH]c(=O)sc45)cc3)CC2)C1 [Example 234, (R)-4-hydroxy-7-(1-hydroxy-2-(4-(2-(4-(3-methylfuran-2-carbonyl)-1-oxa-4,9-diazaspiro[5.5]undecan-9-yl)ethoxy)benzylamino)ethyl) benzo[d]thiazol-2(3H)-one]
29	97	O=C(c1cc2ccccc2s1)N1CCOC2(CCN(CCOc3ccc(CNC[C@H](O)c4ccc(O)c5[nH]c(=O)sc45)cc3)CC2)C1 [Example 235, (R)-7-(2-(4-(2-(4-(benzo[b]thiophene-2-carbonyl)-1-oxa-4,9-diazaspiro[5.5]undecan-9-yl)ethoxy)benzylamino)-1-hydroxyethyl)-4-hydroxy-benzo[d]thiazol-2(3H)-one]
30	73	Cc1cc(C(=O)N2CCOC3(CCN(CCOc4ccc(CNC[C@H](O)c5ccc(O)c6[nH]c(=O)sc56)cc4)CC3)C2)oc1C [Example 236, (R)-7-(2-(4-(2-(4-(4,5-dimethylfuran-2-carbonyl)-1-oxa-4,9-diazaspiro[5.5]undecan-9-yl)ethoxy)benzylamino)-1-hydroxyethyl)-4-hydroxy-benzo[d]thiazol-2(3H)-one]
46	62	Cc1cccc(C(=O)N2CCOC3(CCN(CCOc4ccc(CNC[C@H](O)c5ccc(O)c6[nH]c(=O)sc56)cc4)CC3)C2)n1 [Example 237, (R)-4-hydroxy-7-(1-hydroxy-2-(4-(2-(4-(6-methylpicolinoyl)-1-oxa-4,9-diazaspiro[5.5]undecan-9-yl)ethoxy)benzylamino)ethyl) benzo[d]thiazol-2(3H)-one]
57	73	Cc1occc1C(=O)N1CCOC2(CCN(CCOc3ccc(CNC[C@H](O)c4ccc(O)c5[nH]c(=O)sc45)cc3)CC2)C1 [Example 238, (R)-4-hydroxy-7-(1-hydroxy-2-(4-(2-(4-(2-methylfuran-3-carbonyl)-1-oxa-4,9-diazaspiro[5.5]undecan-9-yl)ethoxy)benzylamino)ethyl) benzo[d]thiazol-2(3H)-one]
90	76	Cc1ccc(C(=O)N2CCOC3(CCN(CCOc4ccc(CNC[C@H](O)c5ccc(O)c6[nH]c(=O)sc56)cc4)CC3)C2)o1 [Example 239, (R)-4-hydroxy-7-(1-hydroxy-2-(4-(2-(4-(5-methylfuran-2-carbonyl)-1-oxa-4,9-diazaspiro[5.5]undecan-9-yl)ethoxy)benzylamino)ethyl) benzo[d]thiazol-2(3H)-one]
34	92	O=C(COc1ccccc1)N1CCOC2(CCN(CCOc3ccc(CNC[C@H](O)c4ccc(O)c5[nH]c(=O)sc45)cc3)CC2)C1 [Example 240, (R)-4-hydroxy-7-(1-hydroxy-2-(4-(2-(4-(2-phenoxyacetyl)-1-oxa-4,9-diazaspiro[5.5]undecan-9-yl)ethoxy)benzylamino)ethyl) benzo[d]thiazol-2(3H)-one]
11	85	Cc1ccnn1CC(=O)N1CCOC2(CCN(CCOc3ccc(CNC[C@H](O)c4ccc(O)c5[nH]c(=O)sc45)cc3)CC2)C1 [Example 241, (R)-4-hydroxy-7-(1-hydroxy-2-(4-(2-(4-(2-(5-methyl-1H-pyrazol-1-yl)acetyl)-1-oxa-4,9-diazaspiro[5.5]undecan-9-yl)ethoxy)benzylamino)ethyl) benzo[d]thiazol-2(3H)-one]
